According to patent publication US20120028995A1, “NOVEL COMPOUNDS FOR MEDICAL USE AS PEPTIDASE EFFECTORS” (IMTM GMBH, priority 2010, published 2012):

How the values were obtained:
T lymphocytes (T cells) = assay: Suppression of DNA synthesis of PHA-stimulated T lymphocytes; assay type: cell-based; conditions: Homo sapiens, T-cell, 48 h, tritium thymidine incorporation, read-out: Supp. DNA Synt. T-cell IC50
Method in brief: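 Healthy-donor PBMC and nylon-wool-purified T cells in serum-free AIMV medium were stimulated 48 h with 1 µg/ml PHA, with compound (0.1–250 µM) present throughout. IC50 was estimated graphically from proliferation relative to PHA-activated T cells without compound.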

[1] = target: T1, purified, recombinant human DPIV (Homo sapiens, UniProt P27487); assay: Inhibition of enzymatic activity of DPIV (fluorogenic substrate hydrolysis); assay type: biochemical; conditions: highest test item concentration 25 μM
T1 construct: made in house; host or cells: Sf9 insect cells
Method in brief: (§1)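 Recombinant human DPIV (Sf9-derived, approx. 1 nM) and recombinant DP8/DP9 in 0.05M Tris/HCl pH 7.5 with 0.05% Triton, 0.05% BSA, 2 mM MgCl2. Substrates were Gly-Pro-AMC at 50 μM (ex 380/em 460 nm, read at 0–120 min) or (Ala-Pro)2-R110 at 1 μM (ex 488/em 530 nm). IC50 from ≥16 log2 dilutions, top 25 μM.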

[2] = target: T2, aminopeptidase N (APN), purified recombinant human enzyme (Homo sapiens, UniProt P15144); assay: Inhibition of enzymatic activity of aminopeptidase N (fluorogenic substrate hydrolysis); assay type: biochemical; conditions: highest test item concentration 25 μM
T2 construct: made in house; host or cells: ECV cells (transfected)
Method in brief: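 Recombinant human APN from transfected ECV cells was used at approx. 1 nM final, in 0.05M TRIS/HCl pH 7.5 with 0.05% Triton, 0.05% BSA and 2 mM MgCl2. Fluorescence release was read from H-Ala-AMC (50 μM) or (Ala-)2-R110 (1 μM). IC50 values came from at least 16 log2 dilutions starting at 25 μM top concentration.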

SZ95 cells = assay: Inhibition of DNA synthesis and proliferation of immortalized human sebocytes SZ95; assay type: cell-based; conditions: Homo sapiens, EGF-stimulated SZ95 sebocytes, tritium thymidine incorporation; read-out: Supp. DNA Synt. SZ95 IC50
Method in brief: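 EGF-stimulated SZ95 sebocytes in serum-free Sebomed Complete, treated with test items at 0.1–100 μM. DNA synthesis read by 3H-thymidine incorporation (beta counting), expressed relative to untreated cells (100%). IC50 for proliferation suppression derived graphically.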

NHEK cells = assay: Inhibition of DNA synthesis and proliferation of normal human epidermal keratinocytes (NHEK); assay type: cell-based; conditions: Homo sapiens, NHEK, 48 h, EGF-stimulated NHEK, BrdU incorporation, read-out: Supp. DNA Synt. NHEK IC50
Method in brief: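 Primary human keratinocytes were grown 48 h in serum-free medium with EGF and pituitary extract, with compounds at 0.1–100 μM. DNA synthesis was measured by BrdU incorporation ELISA relative to untreated controls (100%), and IC50 was derived graphically.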

[3] = target: T3, cytosolic aminopeptidase (cAAP) purified from Jurkat cells (Homo sapiens, UniProt P55786); assay: Inhibition of enzymatic activity of cytosolic aminopeptidase (cAAP); assay type: biochemical; conditions: highest test item concentration 25 μM
T3 construct: The cytosolic aminopeptidase (cAAP) was purified from Jurkat cells; endogenous in cells; host or cells: Jurkat cells (enzyme purified from them)

[4] = system: purified, recombinant DP8 and DP9; assay: Inhibition of enzymatic activity of DP8/9; assay type: biochemical; conditions: highest test item concentration 25 μM
Method in brief: as §1

T2 sequence (P15144 whole entry): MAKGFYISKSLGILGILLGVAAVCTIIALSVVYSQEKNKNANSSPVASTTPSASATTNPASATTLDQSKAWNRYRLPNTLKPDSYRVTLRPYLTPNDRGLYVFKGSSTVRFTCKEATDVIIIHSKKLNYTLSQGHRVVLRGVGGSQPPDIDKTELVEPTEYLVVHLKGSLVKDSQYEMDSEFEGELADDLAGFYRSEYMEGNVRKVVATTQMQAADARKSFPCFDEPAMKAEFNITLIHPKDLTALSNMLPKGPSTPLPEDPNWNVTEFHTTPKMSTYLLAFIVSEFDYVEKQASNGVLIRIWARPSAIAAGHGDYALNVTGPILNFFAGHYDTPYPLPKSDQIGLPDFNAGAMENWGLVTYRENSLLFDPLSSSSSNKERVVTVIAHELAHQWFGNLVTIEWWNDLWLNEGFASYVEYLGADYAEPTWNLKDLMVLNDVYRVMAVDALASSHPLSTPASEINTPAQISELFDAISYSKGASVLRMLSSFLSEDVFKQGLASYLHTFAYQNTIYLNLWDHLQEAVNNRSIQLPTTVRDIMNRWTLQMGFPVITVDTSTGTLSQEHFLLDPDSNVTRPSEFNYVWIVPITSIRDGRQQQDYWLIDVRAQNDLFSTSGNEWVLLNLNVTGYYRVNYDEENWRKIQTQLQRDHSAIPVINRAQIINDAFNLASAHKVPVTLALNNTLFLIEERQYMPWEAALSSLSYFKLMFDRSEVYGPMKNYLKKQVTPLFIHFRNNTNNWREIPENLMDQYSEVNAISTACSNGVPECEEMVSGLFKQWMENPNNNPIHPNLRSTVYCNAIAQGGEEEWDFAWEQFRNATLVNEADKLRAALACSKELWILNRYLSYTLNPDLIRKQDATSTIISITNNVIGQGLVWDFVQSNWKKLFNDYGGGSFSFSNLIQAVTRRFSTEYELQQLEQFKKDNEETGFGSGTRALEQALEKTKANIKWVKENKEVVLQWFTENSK
T3 sequence (P55786 whole entry): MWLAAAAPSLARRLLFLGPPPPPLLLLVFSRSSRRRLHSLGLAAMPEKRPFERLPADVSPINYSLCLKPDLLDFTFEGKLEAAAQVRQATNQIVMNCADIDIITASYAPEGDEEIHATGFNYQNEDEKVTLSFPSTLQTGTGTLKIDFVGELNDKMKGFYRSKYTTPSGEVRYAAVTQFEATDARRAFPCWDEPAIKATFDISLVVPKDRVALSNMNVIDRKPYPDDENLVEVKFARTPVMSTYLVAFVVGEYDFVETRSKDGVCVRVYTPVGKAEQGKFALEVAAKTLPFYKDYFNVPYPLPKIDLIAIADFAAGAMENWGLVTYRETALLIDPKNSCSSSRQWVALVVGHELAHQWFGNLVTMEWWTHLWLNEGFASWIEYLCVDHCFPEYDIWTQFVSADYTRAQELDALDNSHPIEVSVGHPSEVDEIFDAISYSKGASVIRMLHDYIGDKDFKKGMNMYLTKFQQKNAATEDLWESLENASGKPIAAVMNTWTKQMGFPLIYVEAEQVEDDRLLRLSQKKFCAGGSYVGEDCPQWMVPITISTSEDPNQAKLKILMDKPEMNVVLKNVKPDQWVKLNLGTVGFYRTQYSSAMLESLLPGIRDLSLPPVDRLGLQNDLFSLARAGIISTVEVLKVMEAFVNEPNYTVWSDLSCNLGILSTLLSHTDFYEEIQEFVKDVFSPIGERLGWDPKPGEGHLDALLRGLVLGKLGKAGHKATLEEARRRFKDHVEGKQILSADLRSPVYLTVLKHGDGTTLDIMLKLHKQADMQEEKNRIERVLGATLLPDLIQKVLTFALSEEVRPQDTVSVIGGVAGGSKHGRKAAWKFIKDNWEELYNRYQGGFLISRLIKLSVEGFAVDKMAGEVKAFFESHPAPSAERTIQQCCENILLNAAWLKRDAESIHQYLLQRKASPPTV
T1 sequence (P27487 whole entry): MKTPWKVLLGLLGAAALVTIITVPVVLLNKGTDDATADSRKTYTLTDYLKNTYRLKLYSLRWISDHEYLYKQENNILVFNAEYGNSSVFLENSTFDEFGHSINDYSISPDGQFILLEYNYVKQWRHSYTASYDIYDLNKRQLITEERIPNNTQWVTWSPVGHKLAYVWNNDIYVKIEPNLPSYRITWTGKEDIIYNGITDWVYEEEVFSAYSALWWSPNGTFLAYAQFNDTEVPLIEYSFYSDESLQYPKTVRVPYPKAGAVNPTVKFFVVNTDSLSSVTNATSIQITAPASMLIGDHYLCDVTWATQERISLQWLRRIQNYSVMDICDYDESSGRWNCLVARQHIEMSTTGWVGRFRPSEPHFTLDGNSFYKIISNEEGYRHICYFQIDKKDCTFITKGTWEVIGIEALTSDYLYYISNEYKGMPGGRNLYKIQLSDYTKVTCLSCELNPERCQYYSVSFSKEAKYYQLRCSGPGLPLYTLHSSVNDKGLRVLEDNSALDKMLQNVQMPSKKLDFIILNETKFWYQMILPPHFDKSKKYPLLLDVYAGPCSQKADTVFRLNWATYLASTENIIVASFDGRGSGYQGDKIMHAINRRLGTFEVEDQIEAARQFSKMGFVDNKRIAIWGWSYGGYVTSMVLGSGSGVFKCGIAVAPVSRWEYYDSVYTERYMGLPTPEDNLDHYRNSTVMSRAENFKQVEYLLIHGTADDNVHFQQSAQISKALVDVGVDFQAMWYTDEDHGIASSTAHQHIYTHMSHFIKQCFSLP

## CC(C)(C)OC(=O)NC(CNC(=O)c1cccc(NC(=O)C(O)C(COCc2ccccc2)NC(=O)OC(C)(C)C)c1)Cc1cc(F)ccc1F (stereo not shown) [Compound C19.015]
T lymphocytes (T cells)
  IC50: 8 µM
[1]
  meas. IC50 (DPIV): no in- hibition
[2]
  meas. IC50 (APN): no in- hibition
SZ95 cells
  IC50: 5.75 µM
NHEK cells
  IC50: 15.9 µM
[3]
  meas. IC50 (cAAP): no in- hibition
[4]
  meas. IC50 (DP8/9): no in- hibition
